Laboratory results: patent US8486936B2, “Antagonist of smoothened” (AllaChem, LLC, priority 2009, dated 2013)

Tested on: Hh-signalling cascade
Assay: Inhibition of SHh-stimulated alkaline phosphatase in C3H10T1/2 cells (Hh-signalling cascade IC50)
Type: cell-based
Details: Mus musculus, C3H 10T1/2, 384-well plates, triplicates, SHh protein stimulation, read-out: Activity (IC50, half maximal inhibition of stimulation of cell alkaline phosphatase by SHh)
Description: Version 1—manual setup, 96-well plates, dose-response, C3H/10T1/2 cells. Aim: to determine activity of Sonic Hedgehog pathway inhibitors.
• C3H/10T1/2 cells, grown in DMEM medium/10% FBS to 60-80% confluent • Assay Plates: 96-well half-area tissue culture plates Corning cat. #3697 • Tested compounds as 10 mM DMSO solutions in 96-tube racks • Recombinant Human Sonic Hedgehog (C2411) protein, RDS product #1845-SH, reconstituted at 200 μg/ml in PBS. • Lysis Buffer: 10 mM Ethanolamine Buffer (pH 8.0), 0.2% Triton-X100, supplemented 1:100 with Protease Inhibitor Cocktail (EMD Bioscience product #539134). • CSPD Alkaline Phosphatase Substrate with Emerald-II (Applied Biosystems product #T2212). • Prepare 1 Assay plate for every 4 compounds (see FIG. 1): • 1. Harvest C3H/10T1/2 cells with TrypLE Express solution according to a regular cell subculture protocol • 2. Count the cells and calculate dilution necessary to obtain cell suspension at 5×10^3 cells per 40 μl ([…]) • 3. Dilute cells with DMEM/10% FBS and distribute at 40 μl/well • 4. Place the plate(s) into the incubator and allow cells to attach for 3-5 hours • Prepare dilution plate: • 1. Designate 1 column for each compound • 2. Add 99 μl of DMEM/10% FBS to the wells in row A and 50 μl to the wells in rows B-H • 3. Add 1 μl of compound DMSO stocks to the wells in row A, mix, change the tip. • 4. Transfer […] of compound solutions in row A to the wells in row B, mix, change the tip • 5. […] Row G is a “no compound” positive control; row H is a “no Hedgehog” negative control • Add 5 μl/well of 10× compound dilutions from dilution plate to the corresponding wells in assay plates (see assay plate layout). Use 125 μl automatic repeating pipettor. • Place plates into incubator for 20-30 min. • Prepare 3 μg/ml 10× solution of Sonic Hedgehog (C24II) protein (Hh) in DMEM/10% FBS: • 1. Calculate total volume needed as 500 μl per full plate or 125 μl per each compound tested • 2. Add 1.5 μl of Hh stock solution (200 μg/ml in PBS) per each 98.5 μl of medium • Add 5 μl/well of 10× Hh solution to the wells in rows A-G, add 5 μl/well of medium to the wells in row H (see assay plate layout). Use 125 μl automatic repeating pipettor. • Place plates into incubator for 3 days. • Wash cells on plate: aspirate medium, add 100 μl/well of PBS or HBSS and aspirate again. • Add 20 μl/well of lysis buffer and incubate for 15 min. at room temperature on a shaker platform. • Transfer 7.5 μl/well of cell lysate into white opaque plates and add 45 μl/well of CSPD Alkaline Phosphatase substrate. • Cover from light and incubate for 45 min. at room temperature on a shaker platform. • Read the plate(s) on Wallac VictorV reader using Luminescence (0.1 s) protocol.
Cells C3H10T1/2 were used for identification of inhibitors of SHh-protein signaling cascade. SHh-protein activates cells C3H10T1/2, that leads to their osteogenic differentiation [1) Kinto N., Iwamoto M., Enomoto-Iwamoto M., Noji S., Ohuchi H., Yoshioka H., Kataoka H., Wada Y., Yuhao G., Takahashi H. E., Yoshiki S., Yamaguchi A. Fibroblasts expressing Sonic hedgehog induce osteoblast differentiation and ectopic bone formation. FEBS Lett. 1997; 404 (2-3): 319-23. 2) Spinella-Jaegle S., Rawadi G., Kawai S., Gallea S., Faucheu C., Mollat P., Courtois B., Bergaud B., Ramez V., Blanchet A. M., Adelmant G., Baron R., Roman-Roman S. Sonic hedgehog increases the commitment of pluripotent mesenchymal cells into the osteoblastic lineage and abolishes adipocytic differentiation. J. Cell Sci. 2001; 114 (Pt 11): 2085-94] and, in particular, to expression enhancement of alkaline phosphatase enzyme.
The cells were cultivated in DMEM medium with 10% embryonal calfish serum in incubator at 37° C., 100% humidity and 5% CO2 content. The cells were placed in 384-well plates and left for a night. […]

Compound	IC50
COc1ccc(C(=O)Nc2ccc(-c3cn4cccc(C)c4n3)cc2)c(Br)c1 [Cpd-001]	< 500 nM
Cc1cccn2cc(-c3ccc(NC(=O)c4ccc(S(C)(=O)=O)cc4Br)cc3)nc12 [Cpd-003]	< 500 nM
COc1ccc(C(=O)Nc2ccc(-c3cn4cccc(C)c4n3)cc2)c(Cl)c1 [Cpd-005]	< 500 nM
Cc1cccn2cc(-c3ccc(NC(=O)c4ccccc4F)cc3)nc12 [Cpd-006]	500 to 5000 nM
COc1ccc(C(=O)Nc2ccc(-c3cn4cccc(C)c4n3)cc2)c(F)c1 [Cpd-011]	< 500 nM
COc1ccc(C(=O)Nc2ccc(-c3cn4cccc(C)c4n3)cc2)cc1OC [Cpd-013]	< 500 nM
Cc1cccn2cc(-c3ccc(NC(=O)c4ccc(C(C)(C)C)cc4)cc3)nc12 [Cpd-015]	500 to 5000 nM
CCOc1ccc(C(=O)Nc2ccc(-c3cn4cccc(C)c4n3)cc2)c(Br)c1 [Cpd-019]	500 to 5000 nM

Other lines, results leading:

IC50	Compound
< 500 nM	Cc1cccn2cc(-c3ccc(NC(=O)c4ccc(S(C)(=O)=O)cc4Cl)cc3)nc12 [Cpd-002]
500 to 5000 nM	COc1ccc(C(=O)Nc2ccc(-c3cn4cccc(C)c4n3)cc2)c(Oc2ccncc2)c1 [Cpd-004]
5000 to 50000 nM	Cc1cccn2cc(-c3ccc(NC(=O)c4ccc(F)cc4F)cc3)nc12 [Cpd-007]
500 to 5000 nM	CCc1cccn2cc(-c3ccc(NC(=O)c4ccc(F)cc4F)cc3)nc12 [Cpd-008]
5000 to 50000 nM	Cc1cccn2cc(-c3ccc(NC(=O)c4ccc(Cl)cc4Cl)cc3)nc12 [Cpd-009]
< 500 nM	CCOc1ccc(C(=O)Nc2ccc(-c3cn4cccc(C)c4n3)cc2)c(Cl)c1 [Cpd-010]
500 to 5000 nM	Cc1cccn2cc(-c3ccc(NC(=O)c4ccc5c(c4)OCO5)cc3)nc12 [Cpd-012]
5000 to 50000 nM	Cc1cccn2cc(-c3ccc(NC(=O)c4ccc(C(C)C)cc4)cc3)nc12 [Cpd-014]
> 50000 nM	Cc1cccn2cc(-c3ccc(NC(=O)c4ccc(C(F)(F)F)cc4)cc3)nc12 [Cpd-016]
5000 to 50000 nM	Cc1cccn2cc(-c3ccc(NC(=O)c4ccc(-c5ccccc5)cc4)cc3)nc12 [Cpd-017]
< 500 nM	Cc1cccc(C)c1C(=O)Nc1ccc(-c2cn3cccc(C)c3n2)cc1 [Cpd-018]
< 500 nM	Cc1cc(S(C)(=O)=O)ccc1C(=O)Nc1ccc(-c2cn3cccc(C)c3n2)cc1 [Cpd-020]
